Results published in patent US12544371B2, “Methods and compositions for treating acute lung injury and acute respiratory distress syndrome” (CalciMedica, Inc., priority 2020, dated 2026).
“Also recorded” adds a separate entry of the source. Where two headings read alike, the source gives them in different places.

Legend:
[1] = Rat model of acute pancreatitis (caerulein-induced), IV infusion; type: in vivo
[2] = test system: IL-6 released from human PBMCs; assay: Cytokine released from human PBMCs: IL-6; type: cell-based
Description: (§1) CRAC channels may play a proximal role in a calcium-calcineurin pathway leading to cytokine release in immune cells.

[3] = test system: IL-2 release by human PBMCs; assay: IL-2 release by human PBMCs, isolated cell assay; type: cell-based; conditions: PBMC, SEM (n), read-out: Compound 1 IC50, IL-2 release by human PBMCs
Description: as §1

[4] = Phase 1 single ascending dose study (Compound 1 Test 101), healthy subjects; type: in vivo, human
Description: Two Phase 1 studies of N-(5-(6-Chloro-2,2-difluorobenzo[d][1,3]dioxol-5-yl)pyrazin-2-yl)-2-fluoro-6-methylbenzamide (Compound 1) have been conducted in healthy subjects: a single ascending dose (SAD) study (Compound 1 Test 101) and a multiple ascending dose (MAD) study (Compound 1 Test 102). In Compound 1 Test 101 (Table 1), 32 healthy subjects were enrolled in five groups and randomized in a 3:1 ratio to receive a single dose of active versus placebo. The dose levels for each group are noted in Table 1. The dose volume of the emulsion was fixed at 1.3 mL/kg for all subjects in the SAD study groups, and an injectable emulsion of Compound 1 or placebo was administered via a 4-hour IV infusion.
(§2) Plasma concentrations of compound rise steadily during the 4-hour infusion, with Tmax achieved at the end of infusion (4 hours). After the end of infusion, there is a rapid and prominent distribution phase followed by a prolonged period of residual drug levels. The terminal elimination phase has not yet been fully characterized as it appears to be much longer than was anticipated based on pre-clinical PK data in mouse, rat, dog and monkey. Plasma concentrations during the terminal phase are approximately 5% of Cmax values and, as indicated above, to date there have been no clinically significant AEs reported during this phase. Plasma exposures, defined by AUC0-24 h, appear to be dose-proportional and reached a maximum of 6710 ng*h/mL in Group 5, which is 4.3-fold below the mean AUC24 h in monkey at the NOAEL (29,000 ng*hr/mL).

[5] = Repeat-dose toxicity study in monkeys; conditions: in vivo, monkey
Procedure: Hemolysis testing concluded that Compound 1 was compatible with human plasma and non-hemolytic in human blood.
as §2

[6] = test system: IL-17 release by human PBMCs; assay: IL-17 release by human PBMCs, isolated cell assay; type: cell-based; conditions: PBMC, SEM (n), read-out: Compound 1 IC50, IL-17 release by human PBMCs
Description: as §1

[7] = Long-term extension study of SAD and MAD subjects; type: in vivo, human
Description: Subjects in Groups 4 and 5 of the SAD study and Groups 1 and 2 of the MAD study who received Compound 1 were followed for 1 year in a long-term extension study to assess for adverse events and serious adverse events. In addition, PK levels were drawn in all 4 groups on Day 270 to further characterize the terminal phase and the prolonged period of residual drug level.

[8] = test system: stimulated IL-2 release in whole blood; assay: Whole blood assay of stimulated IL-2 release; type: cell-based; conditions: Human whole blood; SEM (n); read-out: Compound 1 IC50, whole blood assay of stimulated IL-2 release
Description: as §1

[9] = test system: CRAC channel-dependent stimulated IL-2 secretion; assay: Ex vivo whole blood PD assay of CRAC channel-dependent IL-2 release (Test 202); type: in vivo, human
Procedure: In Compound 1 Test 202, a pharmacodynamic and pharmacokinetic study of Compound 1 in patients with acute pancreatitis, patients with AP (regardless of the presence of SIRS and/or hypoxemia) were administered a single IV infusion of 2.08 mg/kg of an injectable emulsion of Compound 1 and blood, plasma and serum were collected for analysis. It was planned to initially enroll 5 patients and then to enroll an additional 4 patients as needed. Ultimately, 7 patients were screened for the study, and all 7 enrolled in and completed the study. On Days 1 and 2, blood and plasma samples for PD and PK analyses, respectively, were obtained 30 minutes after completing the administration of Compound 1 and 24 hours from the start of the administration of Compound 1. In patients hospitalized at Day 5 and 10, blood and plasma samples were obtained; if discharged earlier, samples were obtained at the time of discharge. After discharge, patients returned to the hospital on Day 30 to provide final blood and plasma samples.
An intravenous formulation of a CRAC inhibitor comprising Compound 1 allowed rapid delivery and onset of action when a single 2.08 mg/kg dose was given in human patients with acute pancreatitis (AP). Ex vivo whole blood pharmacodynamic (PD) assays of CRAC channel-dependent IL-2 release were performed.

[10] = Safety pharmacology studies in rats; type: in vivo
Description: Compound 1 is a non-limiting example of a composition described herein that inhibits calcium release-activated calcium (CRAC) channels).

[11] = Phase 1 multiple ascending dose study (Compound 1 Test 102), healthy subjects; conditions: for AUC(0-t) / Cmax: human, plasma, intravenous
Procedure: One of the subjects received placebo at the maximum dose volume of emulsion, 1.3 mL/kg, for 7 days, whereas all others were dosed on a weight-based adjustment of dose volume.

[12] = test system: cytokine release from human lymphocytes; assay: In vitro studies of cytokine release from human lymphocytes; type: cell-based
[13] = test system: IL-2 released from human PBMCs; assay: Cytokine released from human PBMCs: IL-2; type: cell-based
Description: as §1

[14] = In vivo micronucleus study (bone marrow micronucleus and liver Comet assays); conditions: rats

For `Cc1cccc(F)c1C(=O)Nc1cnc(-c2cc3c(cc2Cl)OC(F)(F)O3)cn1` [Compound 1, N-(5-(6-Chloro-2,2-difluorobenzo[d][1,3]dioxol-5-yl)pyrazin-2-yl)-2-fluoro-6-methylbenzamide], the “lung myeloperoxidase activity (neutrophil infiltration)” value [1] was “decrease”, the “mRNA levels of the cytokines TNFα and IL-6 (lung)” value [1] was “decrease” and the IC50 ([2]; Homo sapiens, PBMC, mean of replicates, read-out: Mean IC50, IL-6 released from human PBMCs) was 135 nM. For the same compound, the IC50 ([2]; Homo sapiens, PBMC, single replicates, read-out: Replicate IC50 values, IL-6 released from human PBMCs) was 145 nM, the IC50 ([2]; single replicates, read-out: Replicate IC50 values, IL-6 released from human PBMCs) was 126 nM and the IC50 [3] was 10 ± 0.4 nM. The “margin of AUC0-24 h below mean AUC24 h in monkey at the NOAEL” value ([4]; SAD Group 5) was 4.3 fold, the Tmax ([4]; human, in vivo) was 4 h and the “cardiac function: heart rate, QTcF, cardiac troponin-T, B-type natriuretic peptide” value ([4]; human, in vivo) was “no evidence of any treatment related effect”. For the same compound, the “clinically significant laboratory abnormalities” value ([4]; human, in vivo) was “No laboratory abnormalities”, the “distribution compartments, non-compartmental PK analysis” value ([4]; human, in vivo) was “three compartments” and the “dose proportionality of plasma exposure (AUC0-24 h)” value ([4]; human, in vivo) was “dose-proportional”. The “number of clinical AEs (all mild)” value ([4]; human, in vivo) was “three”, the “plasma concentrations during the terminal phase relative to Cmax” value ([4]; human, in vivo) was “approximately 5 % of Cmax” and the “systolic or diastolic blood pressure” value ([4]; human, in vivo) was “no evidence of any sustained treatment related increase”. It also gave an AUC(0-t) ([4]; human, in vivo, 2.1 mg/kg) of 6710 ng·h/mL, an AUC(0-t) ([5]; NOAEL 3 mg/kg/day, read-out: mean AUC24 h in monkey at the NOAEL) of 29000 ng·h/mL and an NOAEL ([5]; repeat-dose, monkeys, read-out: no observable adverse effect level (NOAEL)) of 3 mg/kg/day. For the same compound, the IC50 [6] was 122 ± 36 nM, the “number of mild AEs in the extension study” value ([7]; 365 days) was 1 and the “serious adverse events and adverse events rated moderate or severe, long-term follow-up” value ([7]; healthy subjects followed for 365 days) was “safe and no serious adverse events and no adverse events rated moderate or severe in intensity and no SAEs or AEs rated moderate or severe in intensity”. For the same compound, the IC50 [8] was 178 ± 32 nM, the inhibition at 2.08 mg/kg ([9]; Homo sapiens, at or near Cmax, single 2.08 mg/kg IV) was about 57% and the “time over which the inhibitory effect dissipated” value ([9]; after Cmax) was 1 to 2 days. For the same compound, the “recovery of IL-2 production” value ([9]; after the end of the infusion) was 24 h, the “decrease of IL-2 production” value ([9]; at the end of the infusion) was over 50% and the “onset of action, IL-2 release inhibition” value ([9]; peak at the end of a 4-hour infusion) was “rapid onset of action”. The “adverse effects on central nervous or respiratory systems” value [10] was “no adverse effects”, the Cmax accumulation ([11]; MAD Group 1, 0.5 mg/kg) was 1.6 fold and the “increase in systemic exposure (AUC24 h), Day 7 compared to Day 1” value ([11]; MAD Group 1, 0.5 mg/kg) was 2.6 fold. The “margin of Day 7 AUC24 h below NOAEL AUC24 h in monkey” value ([11]; MAD Group 1, 0.5 mg/kg) was 9.1 fold, the Cmax accumulation ([11]; MAD Group 2, 1.0 mg/kg) was 1.4 fold and the “increase in AUC24 h, Day 7 compared to Day 1” value ([11]; MAD Group 2, 1.0 mg/kg) was 2.6 fold. For the same compound, the “margin of Day 7 AUC24 h below NOAEL AUC24 h in monkey” value ([11]; MAD Group 2, 1.0 mg/kg) was 4.2 fold, the “clinically significant laboratory abnormalities” value ([11]; MAD group 1) was “No laboratory abnormalities” and the “SAEs and AEs classified as moderate or severe” value ([11]; MAD group 1, 0.50 mg/kg daily for 7 days) was “no SAEs and no AEs classified as moderate or severe in intensity”. The “number of clinical AEs (all mild)” value ([11]; MAD group 1, eight subjects incl. placebo) was 15, the “clinically significant laboratory abnormalities” value ([11]; MAD group 2) was “No laboratory abnormalities” and the “SAEs and AEs classified as moderate or severe” value ([11]; MAD group 2, 1.0 mg/kg daily for 7 days) was “no SAEs and no AEs classified as moderate or severe in intensity”. For the same compound, the “number of AEs (all mild)” value ([11]; MAD group 2, eight subjects incl. placebo) was “three”, the “cardiac function: heart rate, QTcF, B-type natriuretic peptide” value ([11]; MAD, both groups) was “no evidence of any sustained treatment related effect” and the “systolic or diastolic blood pressure” value ([11]; MAD, both groups) was “no evidence of any sustained treatment related increase”. It also gave an AUC(0-t) ([11]; 0.5 mg/kg) of 3190 ng·h/mL, a Cmax ([11]; 0.5 mg/kg) of 363 ng/mL and an AUC(0-t) ([11]; 1 mg/kg) of 6830 ng·h/mL. For the same compound, the Cmax ([11]; 1 mg/kg) was 637 ng/mL, the “inhibition of cytokine release from human lymphocytes” value [12] was “inhibits release of multiple cytokines; also recorded: potent, concentration-dependent inhibition” and the IC50 ([13]; Homo sapiens, PBMC, mean of replicates, read-out: Mean IC50, IL-2 released from human PBMCs) was 59 nM. For the same compound, the IC50 ([13]; Homo sapiens, PBMC, single replicates, read-out: Replicate IC50 values, IL-2 released from human PBMCs) was 71 nM, the IC50 ([13]; single replicates, read-out: Replicate IC50 values, IL-2 released from human PBMCs) was 47 nM and the “DNA reactivity, bone marrow micronucleus and liver Comet assays” value [14] was “no evidence of DNA reactivity”.
